One series concerns Candida albicans. Put plainly: Antifungal activity against Candida albicans MSU-SM 543 after 2 to 4 days. Type of series: functional.
A further series concerns Aspergillus fumigatus. The series is described as follows: Antifungal activity against Aspergillus fumigatus MSU-SM 920 after 2 to 4 days. Type of series: functional.
A further series relates to Microsporum canis. Put plainly: Antifungal activity against Microsporum canis after 2 to 4 days. Type of series: functional.
For a further series, the system named is Trichophyton rubrum. Put plainly: Antifungal activity against Trichophyton rubrum after 2 to 4 days. The series is classed as functional.
Series [1] can be described thus: Toxicity against human erythrocytes at 50 ppm after 60 mins by turbidimetry. Type of series: cell-based. The conditions noted are these: erythrocyte, 1 h.
Series [2] can be described thus: Toxicity against human erythrocytes at 20 ppm after 60 mins by turbidimetry. The series is classed as cell-based. Conditions: erythrocyte, 1 h.
Series [3] is described as follows: Toxicity against human erythrocytes at 0.5 ppm after 60 mins by turbidimetry. The conditions noted are these: erythrocyte, 1 h. Type of series: cell-based.
The nature of series [4]: Toxicity against human erythrocytes at 0.05 ppm after 60 mins by turbidimetry. Type of series: cell-based. Conditions: erythrocyte, 1 h.
The nature of series [5]: Toxicity against rat WB-F344 cells assessed as cell viability at 50 ppm after 1 hr using trypan blue staining by LDH assay. Type of series: cell-based. Conditions: read-out: Activity.
Series [6] is described as follows: Toxicity against rat WB-F344 cells assessed as cell viability at 20 ppm after 1 hr using trypan blue staining by LDH assay. The series is classed as cell-based. The conditions noted are these: read-out: Activity.
Series [7] can be described thus: Toxicity against rat WB-F344 cells assessed as cell viability at 0.5 ppm after 1 hr using trypan blue staining by LDH assay. Type of series: cell-based. The conditions noted are these: read-out: Activity.
A short description of series [8]: Toxicity against rat WB-F344 cells assessed as cell viability at 0.05 ppm after 1 hr using trypan blue staining by LDH assay. Conditions: read-out: Activity. Type of series: cell-based.

Drawing on ChEMBL document CHEMBL1147296, “Faeriefungin: a new broad-spectrum antibiotic from Streptomyces griseus var. autotrophicus” (J Nat Prod, 1989), this text covers MIC, Activity and viability for six molecules.

In brackets after ≈: the same amount, converted by molar mass.

The MIC is the least concentration at which growth counts as inhibited. With `C[C@@H]1[C@H](O)[C@@H](C)/C=C/C=C/C=C/C=C/C=C/C=C/C=C/[C@H](O[C@@H]2O[C@H](C)[C@@H](O)[C@H](N)[C@@H]2O)C[C@@H]2O[C@](O)(C[C@@H](O)C[C@@H](O)[C@H](O)CC[C@@H](O)C[C@@H](O)CC(=O)O[C@H]1C)C[C@H](O)[C@H]2C(=O)O` [AMPHOTERICIN B], the MIC in the series on Candida albicans was found to be 3.2 µg/mL (≈ 3.46 µM); in the series on Aspergillus fumigatus it was 80 µg/mL (≈ 86.6 µM); against Microsporum canis, 16 µg/mL (≈ 17.3 µM); with Trichophyton rubrum, 16 µg/mL (≈ 17.3 µM). The Activity result in [1] is “Toxic”; in series [2], “Toxic”; in series [3], “Non-toxic”; in [4], “Non-toxic”. In series [5], the viability at 1 h, 50 ppm worked out at 0%. In addition, in [6], the viability at 1 h, 20 ppm was 0%. In series [7], the viability at 1 h, 0.5 ppm was determined as 100%. In addition, the viability at 1 h, 0.05 ppm in series [8] is 100%.

On to `Clc1ccccc1C(c1ccccc1)(c1ccccc1)n1ccnc1` [CLOTRIMAZOLE], for which the MIC with Candida albicans was determined as 1 µg/mL (≈ 2.9 µM); in the series with Aspergillus fumigatus it was 1 µg/mL (≈ 2.9 µM); in the series on Microsporum canis, 16 µg/mL (≈ 46.4 µM); against Trichophyton rubrum, 80 µg/mL (≈ 232 µM).

With `CC(=O)N1CCN(c2ccc(OCC3COC(Cn4ccnc4)(c4ccc(Cl)cc4Cl)O3)cc2)CC1` (configuration not stated) [KETOCONAZOLE], the MIC against Candida albicans turned out to be 0.5 µg/mL (≈ 0.941 µM); against Aspergillus fumigatus, 1 µg/mL (≈ 1.88 µM); with Microsporum canis, 5.5 µg/mL (≈ 10.3 µM); with Trichophyton rubrum, 5.5 µg/mL (≈ 10.3 µM).

`Clc1ccc(COC(Cn2ccnc2)c2ccc(Cl)cc2Cl)c(Cl)c1` (configuration not stated) [MICONAZOLE]: the MIC in the series with Candida albicans worked out at 1 µg/mL (≈ 2.4 µM); in the series with Aspergillus fumigatus, 8 µg/mL (≈ 19.2 µM); with Microsporum canis it was 16 µg/mL (≈ 38.4 µM); with Trichophyton rubrum, 80 µg/mL (≈ 192 µM).

`C[C@@H]1C/C=C/C=C/C=C/C=C/[C@H](O[C@@H]2O[C@H](C)[C@@H](O)[C@H](N)[C@@H]2O)C[C@@H]2O[C@](O)(C[C@@H](O)C[C@H]3O[C@@H]3/C=C/C(=O)O1)C[C@H](O)[C@H]2C(=O)O` [NATAMYCIN]: the MIC against Candida albicans stood at 5.5 µg/mL (≈ 8.26 µM); in the series with Aspergillus fumigatus it was 16 µg/mL (≈ 24 µM); against Microsporum canis it was 16 µg/mL (≈ 24 µM); in the series on Trichophyton rubrum, 16 µg/mL (≈ 24 µM).

Regarding NYSTATIN, the minimal inhibitory concentration (MIC) in the series on Candida albicans was 3.2 µg/mL; with Aspergillus fumigatus it was 100 µg/mL; against Microsporum canis, 100 µg/mL; in the series with Trichophyton rubrum, 100 µg/mL.
